Among the test systems are HCT-116 colon; PC-3 prostate; OVCAR-4 ovarian; EKVX NSCLC; RPMI-8226 leukemia; HOP-92 NSCLC; DU-145 prostate; CCRF-CEM leukemia; NCI-H226 lung; MCF7 breast.
Holding throughout (test): inhibition of tumour cell growth, NCI panel, 48 h

Molecules are shown by their SMILES. “And” between values parts separate entries of the source, which are not always exact repeats. Equal entries are not always repeated.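 All cell lines were grown in 96-well plates and treated with compound for 48 hours. Here, GI50 denotes the concentration required for 50% inhibition of growth. TGI: concentration producing complete growth inhibition.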 A value given as a limit tells only on which side of the number the result lay.

Regarding `CC(C)(C)OC(=O)C1C(=O)NC(=O)CC1CC(OCc1ccccc1)C(OCc1ccccc1)C(COCc1ccccc1)OCc1ccccc1` (configuration not stated), the GI50 is 48.5 µM and 17 µM in the test on HCT-116 colon; 54.7 µM and 8.16 µM in the test on PC-3 prostate; 62.2 µM and 12.6 µM in the test on EKVX NSCLC; 21.5 µM and 7.16 µM with RPMI-8226 leukemia; 60.6 µM and 11.8 µM with CCRF-CEM leukemia; 33 µM and 14 µM in the test on NCI-H226 lung. Also, in the test on MCF7 breast, the GI50 is 27000 nM and 7190 nM. For the same compound, the TGI was more than 100 µM with HCT-116 colon; more than 100 µM with PC-3 prostate; more than 100 µM in the test on OVCAR-4 ovarian; more than 100 µM in the test with EKVX NSCLC; > 100 µM and 34.1 µM in the test on RPMI-8226 leukemia; > 100 µM and 68.1 µM with HOP-92 NSCLC. For the same compound, the TGI is more than 100 µM with DU-145 prostate; more than 100 µM with CCRF-CEM leukemia; more than 100 µM in the test with NCI-H226 lung; > 100 µM and 89.6 µM in the test on MCF7 breast.
On to `O=S(=O)(N=C1C(Cl)=C(Cl)C(=NS(=O)(=O)c2ccccc2)C(Cl)=C1Cl)c1ccccc1`, for which the GI50 in the test with HCT-116 colon was 13.6 µM; in the test on PC-3 prostate, 24.3 µM; with OVCAR-4 ovarian it was 22100 nM; in the test with EKVX NSCLC, 31.5 µM; with RPMI-8226 leukemia, 23.9 µM; in the test on HOP-92 NSCLC it was 56900 nM. Besides, the GI50 was 18500 nM with DU-145 prostate, 14.8 µM in the test on CCRF-CEM leukemia, 21.6 µM in the test on NCI-H226 lung and 18000 nM with MCF7 breast. For the same compound, the TGI with HCT-116 colon was 29.1 µM; in the test with PC-3 prostate, more than 100 µM; with OVCAR-4 ovarian, more than 100 µM; in the test with EKVX NSCLC, more than 100 µM; in the test with RPMI-8226 leukemia it was more than 100 µM; in the test on HOP-92 NSCLC, more than 100 µM. Also, the TGI in the test with DU-145 prostate is 60.9 µM; in the test on CCRF-CEM leukemia, 90.9 µM; with NCI-H226 lung it was 56.2 µM; in the test on MCF7 breast, more than 100 µM.
Regarding `CSc1ccc(C2=NN(C(C)=O)C(c3ccc(-c4cc(Cl)c(Cl)cc4Cl)o3)C2)cc1` (configuration not stated), the GI50 is 10.3 µM with HCT-116 colon; 11.2 µM in the test on PC-3 prostate; 13400 nM with OVCAR-4 ovarian; 14.9 µM in the test on EKVX NSCLC; 10.9 µM in the test on RPMI-8226 leukemia; 11200 nM in the test with HOP-92 NSCLC. In addition, the GI50 in the test with DU-145 prostate was 15500 nM; with CCRF-CEM leukemia it was 21.5 µM; with NCI-H226 lung, 13.9 µM; in the test with MCF7 breast it was 12500 nM. Further, the TGI was 21.9 µM in the test on HCT-116 colon; 30.7 µM in the test with PC-3 prostate; 26.8 µM in the test with OVCAR-4 ovarian; 30.6 µM with EKVX NSCLC; 41 µM in the test with RPMI-8226 leukemia; 23.6 µM with HOP-92 NSCLC. Besides, the TGI in the test on DU-145 prostate worked out at 29 µM; in the test with CCRF-CEM leukemia, 47 µM; in the test with NCI-H226 lung, 27.3 µM; in the test with MCF7 breast, 26.5 µM.
Regarding `COc1ccc(-c2ncnc3c2ncn3CC#CCCl)cc1`, the GI50 in the test with HCT-116 colon is 3.5 µM; with PC-3 prostate, 6.82 µM; with OVCAR-4 ovarian, 2660 nM; in the test with EKVX NSCLC it was 12.8 µM; with RPMI-8226 leukemia, 3.46 µM; with HOP-92 NSCLC, 2750 nM. Further, the GI50 is 4740 nM with DU-145 prostate, 3.84 µM in the test on CCRF-CEM leukemia, 4.45 µM in the test with NCI-H226 lung and 2480 nM in the test on MCF7 breast. Moreover, the TGI with HCT-116 colon came to 14.7 µM; with PC-3 prostate it was 24.7 µM; in the test with OVCAR-4 ovarian, 12.5 µM; with EKVX NSCLC it was 29.6 µM; in the test with RPMI-8226 leukemia, 20 µM; with HOP-92 NSCLC, 11.8 µM. Also, the TGI in the test with DU-145 prostate is 18.4 µM; in the test with CCRF-CEM leukemia, 42.7 µM; in the test on NCI-H226 lung it was 26.2 µM; with MCF7 breast, 12.2 µM.
In the case of `C(=N\Nc1ncc(-c2cc3cc4c(cc3o2)OCO4)s1)/c1ccco1`, the GI50 with HCT-116 colon was 1.57 µM; in the test on PC-3 prostate it was 1.79 µM; in the test with OVCAR-4 ovarian it was 1270 nM; in the test with EKVX NSCLC, 2.25 µM; in the test on RPMI-8226 leukemia, 3.08 µM; in the test on HOP-92 NSCLC, 1940 nM. Further, the GI50 in the test with DU-145 prostate is 2020 nM; with CCRF-CEM leukemia, 0.551 µM; in the test on NCI-H226 lung, 3.67 µM; with MCF7 breast, 683 nM. Further, the TGI in the test on HCT-116 colon is 4.03 µM; with PC-3 prostate, 12.4 µM; in the test on OVCAR-4 ovarian it was 12.2 µM; in the test with EKVX NSCLC, 10.9 µM; in the test on RPMI-8226 leukemia it was 13.3 µM; with HOP-92 NSCLC, 8.98 µM. Moreover, the TGI is 5.49 µM in the test on DU-145 prostate, 16.2 µM in the test on CCRF-CEM leukemia, 18.9 µM with NCI-H226 lung and 7.18 µM in the test with MCF7 breast.
As to `Cc1c(CN2CCN(C(=O)[C@H](C)O)CC2)sc2c(N3CCOCC3)nc(-c3cnc(N)nc3)nc12`, the GI50 was 0.634 µM and 0.252 µM in the test with HCT-116 colon; 0.122 µM and 0.0753 µM in the test with PC-3 prostate; 346 nM and 144 nM with OVCAR-4 ovarian; 0.121 µM and 0.21 µM in the test on EKVX NSCLC; 0.267 µM and 0.206 µM with RPMI-8226 leukemia; 143 nM and 18.1 nM in the test with HOP-92 NSCLC. Besides, the GI50 in the test on DU-145 prostate is 424 nM and 244 nM; in the test on CCRF-CEM leukemia it was 1.11 µM and 0.322 µM; in the test on NCI-H226 lung, 0.345 µM and 0.159 µM; with MCF7 breast, 42.8 nM and 37.9 nM. The TGI was more than 40.1 µM in the test with HCT-116 colon; more than 100 µM with PC-3 prostate; 3.86 µM and 1.09 µM in the test on OVCAR-4 ovarian; 2.26 µM and 2.34 µM in the test on EKVX NSCLC; > 8.66 µM and 11.8 µM in the test with RPMI-8226 leukemia; 0.8 µM and 0.108 µM in the test on HOP-92 NSCLC. Moreover, the TGI is more than 100 µM in the test with DU-145 prostate, more than 100 µM in the test on CCRF-CEM leukemia, 6.15 µM with NCI-H226 lung and more than 100 µM in the test with MCF7 breast.
As for `Fc1cccc(COc2ccc(Nc3ncnc4onc(-c5ccccc5)c34)cc2)c1`, the GI50 is 0.0546 µM in the test on HCT-116 colon; 0.262 µM with PC-3 prostate; 988 nM with OVCAR-4 ovarian; 1.61 µM in the test with EKVX NSCLC; 0.0497 µM in the test on RPMI-8226 leukemia; 264 nM with HOP-92 NSCLC. Also, the GI50 in the test with DU-145 prostate is 172 nM; in the test on CCRF-CEM leukemia, 0.287 µM; in the test on NCI-H226 lung, 3.06 µM; with MCF7 breast, 39.3 nM. Moreover, the TGI in the test on HCT-116 colon was more than 37.4 µM; in the test on PC-3 prostate, more than 100 µM; in the test with OVCAR-4 ovarian, more than 100 µM; with EKVX NSCLC it was more than 100 µM; with RPMI-8226 leukemia, more than 42 µM; in the test with HOP-92 NSCLC, 62.8 µM. Also, the TGI is 0.806 µM with DU-145 prostate, more than 50.4 µM in the test on CCRF-CEM leukemia, more than 100 µM in the test with NCI-H226 lung and more than 100 µM in the test on MCF7 breast.
Regarding `O=C(O)c1cccc(S(=O)(=O)NCCO)c1`, the TGI with HCT-116 colon, in the test on PC-3 prostate, in the test with OVCAR-4 ovarian, in the test on EKVX NSCLC, in the test with RPMI-8226 leukemia and in the test with HOP-92 NSCLC was more than 100 µM each time. Also, the TGI with DU-145 prostate, in the test with CCRF-CEM leukemia, in the test on NCI-H226 lung and in the test on MCF7 breast was more than 100 µM in each case.

The values are drawn from PubChem BioAssay (NCI).
